This is an account of results in patent publication US7872047B2, “Esters of long-chain alcohols and preparation thereof” (Eastman Chemical Company, priority 2008, dated 2011).

The nature of this test: Oxidative Stability Index (OSI) accelerated oxidation test in simple skin lipid model. The following applies: for onset of lipid oxidation over the untreated control (antioxidant effect): 1% idebenone, 1% or 2% idebenone linoleate in SLMM, p<0.01; for Avg. OSI (stdev) Hours at 80° C.: air bubbled, induction period, triplicate; for Calculated OSI Hours at 35° C.: estimated for 35° C. (skin surface temperature) with instrument software. From the text: Oxidation of skin lipids can contribute to an aged appearance and other undesirable effects on skin condition. A simple skin lipid model (based on fatty acids found in skin) can be used to evaluate and predict the topical effectiveness of different compounds to inhibit skin lipid oxidation and improve the condition of skin (Narayanan, S.: Hunerbein, A.: Getie, M.; Jackel, A.; Neubert, R. H. Scavenging properties of metronidazole on free oxygen radicals in a skin lipid model system. J Pharm Pharmacol. 2007 August;59(8):1125-30).
Lipid oxidation can be measured by a number of analytical methods. An accelerated oxidation test such as the Oxidative Stability Index (OSI) is accepted as a method for determining both oxidative stability of lipids as well as antioxidant effectiveness (Bartee, S. D.; Kim, H. J.; Min, D. B. Effects of antioxidants on the oxidative stability of oils containing arachidonic, docosapentaaenoic and docosahexaenoic acids. J Amer Oil Chem Soc 2007 84: 363-68.; Official methods and recommended practices of the AOCS, 5th Edition, AOCS 1998).
In this example, the OSI method was used to assess the antioxidant activity of idebenone esters by measuring their ability to inhibit lipid oxidation in a mixture of fatty acids that are present in skin lipids. The composition of the simple skin lipid model tested is 74% linoleic acid; 21% oleic acid; 4% linolenic acid. The simple skin lipid model includes a large proportion of polyunsaturated and unsaturated fatty acids, which are prone to oxidation.
The untreated sample was composed of the simple skin lipid model (fatty acid mixture). The treated samples were prepared by dissolving the test materials in the simple skin lipid model at 1 or 2 wt % at room temperature. The treated and untreated lipid matrices were oxidized by heating the test solutions to 80° C. and bubbling air through the samples. The OSI (induction period in hours) was determined using an Oxidative Stability Instrument (Omnion, Inc. Rockville Md.) and the method of Bartee et al., 2007. Untreated and treated samples were tested in triplicate, and the average and standard deviation are included in Table 1. The OSI (induction period in hours) was also estimated for oxidation at 35° C. (simulating skin surface temperature) using the software supplied with the instrument.

Each structure is given as a SMILES string.

As to `CCCCC/C=C\C/C=C\CCCCCCCC(=O)OCCCCCCCCCCC1=C(C)C(=O)C(OC)=C(OC)C1=O` [idebenone linoleate, Idebenone Linoleate], the “onset of lipid oxidation over the untreated control (antioxidant effect)” value is “significantly delayed the onset of lipid oxidation”. Also, where the note is “1 wt % test material in SLMM”, the “Avg. OSI (stdev) Hours at 80° C.” value is listed as 2.50 (0.54) Hours and the “Calculated OSI Hours at 35° C.” value is 56.2 h. Moreover, for the setting “2 wt % test material in SLMM”, the “Avg. OSI (stdev) Hours at 80° C.” value is given as 3.22 (0.67) Hours and the “Calculated OSI Hours at 35° C.” value is 72.4 h.

In the case of `COC1=C(OC)C(=O)C(CCCCCCCCCCO)=C(C)C1=O` [idebenone, Idebenone, reference compound], the “onset of lipid oxidation over the untreated control (antioxidant effect)” value is “significantly delayed the onset of lipid oxidation”. For the same compound, under “1 wt % test material in SLMM”, the “Avg. OSI (stdev) Hours at 80° C.” value is 2.77 (0.14) Hours and the “Calculated OSI Hours at 35° C.” value is 62.3 h.
